{
  "source": "patent US20030096237A1",
  "about": "“Determination of the ability of patients to respond to a tumor treatment” (priority 2000, published 2003)",
  "test_in_all_cases": "HLA class I induction, flow-cytometry",
  "type_in_all_cases": "cell-based, human",
  "key": {"CNCM I-2544": {"tested_on": "CNCM I-2544", "details": "two days with IFN-α 100 U/ml, absence 305", "protocol": "(§1) Melanoma cell lines were screened for their sensitivity to proliferation inhibition and HLA class I induction. The study was done of six cell lines (CNCM I-2544, CNCM I-2545, CNCM I-2546, CNCM I-2547, CNCM I-2548 and CNCM I-2549).\n(§2) All these cell lines were cultured in RPMI medium supplemented with 10% FCS, glutamine (2 mM), sodium pyruvate (1 mM), non-essential amino acids and HEPES buffer (10 mM) (all from GIBCO Life Sciences, Paisley, UK). When confluent, the cells were passaged by trypsinization.\n(§3) A number of established melanoma cell lines were assayed for their sensitivity to IFN-α by testing the capacity of IFN-α to inhibit their proliferation and to increase their surface expression of HLA class I determinants."}, "CNCM I-2548": {"tested_on": "CNCM I-2548", "details": "two days with IFN-α 100 U/ml, absence 380", "protocol": "as §1, §2, §3"}, "CNCM I-2547": {"tested_on": "CNCM I-2547", "details": "two days with IFN-α 100 U/ml, absence 135", "protocol": "as §1, §2, §3"}, "CNCM I-2549": {"tested_on": "CNCM I-2549", "details": "two days with IFN-α 100 U/ml, absence 203", "protocol": "as §1, §2, §3"}, "CNCM I-2545": {"tested_on": "CNCM I-2545", "details": "two days with IFN-α 100 U/ml, absence 196", "protocol": "as §1, §2, §3"}, "CNCM I-2546": {"tested_on": "CNCM I-2546", "details": "two days with IFN-α 100 U/ml, absence 257", "protocol": "as §1, §2, §3"}},
  "data": [
    {"substance": "IFN-α", "values": [
      {"measurement": "HLA class I induction, mean fluorescence intensity", "setting": "CNCM I-2544", "value": "(442 vs. 305)"},
      {"measurement": "HLA class I induction, mean fluorescence intensity", "setting": "CNCM I-2548", "value": "(559 vs. 380)"},
      {"measurement": "HLA class I induction, mean fluorescence intensity", "setting": "CNCM I-2547", "value": "(980 vs. 135)"},
      {"measurement": "HLA class I induction, mean fluorescence intensity", "setting": "CNCM I-2549", "value": "(175 vs. 203)"},
      {"measurement": "HLA class I induction, mean fluorescence intensity", "setting": "CNCM I-2545", "value": "(184 vs. 196)"},
      {"measurement": "HLA class I induction, mean fluorescence intensity", "setting": "CNCM I-2546", "value": "(521 vs. 257)"}
    ]}
  ]
}
